In brackets after ≈: the same amount, converted by molar mass. Read-outs that look alike come from different tables or passages of the source.
Columns and labels:
[1] = test system: E. histolytica (HM1:IMSS); test: ATP-bioluminescence cell growth and survival assay, E. histolytica trophozoites; format: cell-based; settings: Entamoeba histolytica
[2] = Broth microdilution MIC assay, ESKAPE pathogens; format: cell-based; settings: S. aureus, E. coli, K. pneumoniae, A. baumannii, P. aeruginosa; read-out: antibacterial MIC ESKAPE
[3] = test system: ESKAPE pathogens S. aureus (ATCC 43300), E. coli (ATCC 25922), K. pneumoniae (ATCC 700603), A. baumannii (ATCC 19606), P. aeruginosa (ATCC 27853); test: Broth microdilution MIC assay, ESKAPE pathogens; format: cell-based
[4] = test system: C. difficile (630, ATCC BAA-1382); test: Broth microdilution MIC assay, C. difficile; format: cell-based, Clostridium difficile; settings: 630 ATCC BAA-1382, median MIC; for MIC: Clostridioides difficile, ATCCBAA1382, read-out: antibacterial MIC C. difficile
[5] = test system: L. donovani MHOM/IN/80/DD8 (ATCC50212); test: L. donovani DD8 intracellular (THP-1) amastigote assay; format: cell-based; settings: Leishmania donovani
[6] = Kinetic solubility determination by LC-UV; settings: room temperature, 1% DMSO
[7] = test system: C. albicans (ATCC 90028) and C. neoformans (H99, ATCC 208821); test: Broth microdilution MIC assay, fungi; format: cell-based
[8] = read-out: antiparasitic IC50 E. histolytica
[9] = read-out: antiparasitic pIC50 ± SE E. histolytica (converted)
[10] = read-out: antiparasitic IC50 L. donovani
[11] = read-out: antiparasitic pIC50 ± SE L. donovani (converted)
[12] = PBS, pH 7.4, Solubility µM (PBS), PBS pH 7.4, 24 h
[13] = water, Solubility µM (H2O), 24 h

| Structure (SMILES) | IC50 [1, 8] [µM] | IC50 [1, 9] [µM] | MIC [2] [µg/mL] | antibacterial MIC ESKAPE [3] [µg/mL] | antibacterial MIC C. difficile [4] [µg/mL] | MIC [4] [µg/mL] | IC50 [5, 10] [µM] | IC50 [5, 11] [µM] | solubility at 24 h [6, 12] [µM] | solubility at 24 h [6, 13] [µM] | antifungal MIC [7] [µg/mL] | MIC ([7]; Candida albicans, read-out: antifungal MIC) [µg/mL] |
| --- | --- | --- | --- | --- | --- | --- | --- | --- | --- | --- | --- | --- |
| O=c1[nH]ccn2cc([N+](=O)[O-])nc12 [17a, 2-Nitroimidazo[1,2-a]pyrazin-8(7H)-one] | > 25 | > 25.1 | > 32 | >32 | >64 | > 64 | > 80 | > 79.4 | > 200 | > 200 |  |  |
| O=c1c2nc([N+](=O)[O-])cn2ccn1Cc1ccc(F)cc1F [17j, 7-(2,4-Difluorobenzyl)-2-nitroimidazo[1,2-a]pyrazin-8(7H)-one] | > 50 | > 50.1 | > 32 | >32 |  |  | > 40 | > 39.8 | < 5 | < 5 |  |  |
| O=c1c2nc([N+](=O)[O-])cn2ccn1Cc1ccccc1OC(F)(F)F [17i, 2-Nitro-7-(2-(trifluoromethoxy)benzyl)imidazo[1,2-a]pyrazin-8(7H)-one] | > 50 | > 50.1 | > 32 | >32 |  |  | > 40 | > 39.8 | < 5 | < 5 |  |  |
| O=[N+]([O-])c1cn2ccnc(OCCc3ccc(OC(F)(F)F)cc3)c2n1 [18m, 2-Nitro-8-(4-(trifluoromethoxy)phenethoxy)imidazo[1,2-a]pyrazine] |  |  | > 32 | >32 |  | 64 (≈ 174 µM) |  |  |  |  |  |  |
| O=c1c2nc([N+](=O)[O-])cn2ccn1Cc1ccccn1 [17k, 2-Nitro-7-(pyridin-2-ylmethyl)imidazo[1,2-a]pyrazin-8(7H)-one, 1TFA] | > 50 | > 50.1 | > 32 | >32 | >64 | > 64 | > 80 | > 79.4 |  |  |  |  |
| O=[N+]([O-])c1cn2ccnc(OCc3ccccc3OC(F)(F)F)c2n1 [18i, 2-Nitro-8-((2-(trifluoromethoxy)benzyl)oxy)imidazo[1,2-a]pyrazine] | > 50 | > 50.1 | > 32 | >32 |  |  |  |  | < 5 | < 5 |  |  |
| CC(=O)OCCn1ccn2cc([N+](=O)[O-])nc2c1=O [17o, 2-(2-Nitro-8-oxoimidazo[1,2-a]pyrazin-7(8H)-yl)ethyl Acetate] | > 50 | > 50.1 | > 32 | >32 | >64 | > 64 | > 80 | > 79.4 |  |  |  |  |
| Cc1ccc(Cn2ccn3cc([N+](=O)[O-])nc3c2=O)cc1 [17d, 7-(4-Methylbenzyl)-2-nitroimidazo[1,2-a]pyrazin-8(7H)-one] |  |  | > 32 | >32 |  |  | > 80 | > 79.4 | < 5 | < 5 |  |  |
| O=c1c2nc([N+](=O)[O-])cn2cc(-c2ccccc2)n1CCO [24d, 7-(2-Hydroxyethyl)-2-nitro-6-phenylimidazo[1,2-a]pyrazin-8(7H)-one] |  |  | > 32 | >32 | >64 | > 64 |  |  | 164 ± 21 (≈ 49.2 µg/mL) | 163 ± 15 (≈ 48.9 µg/mL) | >32 | > 32 |
| O=c1c2nc([N+](=O)[O-])cn2ccn1CCN1CCOCC1 [17q, 4-(2-(2-Nitro-8-oxoimidazo[1,2-a]pyrazin-7(8H)-yl)ethyl)morpholin-4-ium 2,2,2-Trifluoroacetate] | > 50 |  | > 32 | >32 | >64 | > 64 | > 80 | > 79.4 |  |  |  |  |
